Laboratory results taken from patent US20160362408A1 (Bayer Pharma Aktiengesellschaft, priority 2013, published 2016).

What follows are compounds tested against T1, recombinant guanylate cyclase reporter cell line (Rattus norvegicus, UniProt P19686+P20595) (assay: Effect on a recombinant guanylate cyclase reporter cell line). Conditions: MEC = minimum effective concentration; in some cases mean values for individual determinations.
T1 construct: expressed in transfected cells
T1 sequence (P19686 1-690): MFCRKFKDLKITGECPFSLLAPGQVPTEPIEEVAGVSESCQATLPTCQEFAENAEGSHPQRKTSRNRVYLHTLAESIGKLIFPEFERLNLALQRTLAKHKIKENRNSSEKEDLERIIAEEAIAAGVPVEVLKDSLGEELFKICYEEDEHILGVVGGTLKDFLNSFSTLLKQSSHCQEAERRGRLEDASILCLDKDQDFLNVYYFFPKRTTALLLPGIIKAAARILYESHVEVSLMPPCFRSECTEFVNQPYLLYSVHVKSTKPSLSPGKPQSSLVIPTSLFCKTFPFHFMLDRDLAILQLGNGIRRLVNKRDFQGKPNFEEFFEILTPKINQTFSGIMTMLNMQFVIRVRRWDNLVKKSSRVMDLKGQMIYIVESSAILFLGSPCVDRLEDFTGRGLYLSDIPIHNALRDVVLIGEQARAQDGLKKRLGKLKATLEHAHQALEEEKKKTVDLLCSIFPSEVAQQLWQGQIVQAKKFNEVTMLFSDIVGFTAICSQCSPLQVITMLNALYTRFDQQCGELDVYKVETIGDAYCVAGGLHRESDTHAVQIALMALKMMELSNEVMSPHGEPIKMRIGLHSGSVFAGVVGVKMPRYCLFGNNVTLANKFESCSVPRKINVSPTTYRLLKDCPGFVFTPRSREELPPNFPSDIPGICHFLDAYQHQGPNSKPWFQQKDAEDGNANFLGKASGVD
T1 sequence (P20595 1-619): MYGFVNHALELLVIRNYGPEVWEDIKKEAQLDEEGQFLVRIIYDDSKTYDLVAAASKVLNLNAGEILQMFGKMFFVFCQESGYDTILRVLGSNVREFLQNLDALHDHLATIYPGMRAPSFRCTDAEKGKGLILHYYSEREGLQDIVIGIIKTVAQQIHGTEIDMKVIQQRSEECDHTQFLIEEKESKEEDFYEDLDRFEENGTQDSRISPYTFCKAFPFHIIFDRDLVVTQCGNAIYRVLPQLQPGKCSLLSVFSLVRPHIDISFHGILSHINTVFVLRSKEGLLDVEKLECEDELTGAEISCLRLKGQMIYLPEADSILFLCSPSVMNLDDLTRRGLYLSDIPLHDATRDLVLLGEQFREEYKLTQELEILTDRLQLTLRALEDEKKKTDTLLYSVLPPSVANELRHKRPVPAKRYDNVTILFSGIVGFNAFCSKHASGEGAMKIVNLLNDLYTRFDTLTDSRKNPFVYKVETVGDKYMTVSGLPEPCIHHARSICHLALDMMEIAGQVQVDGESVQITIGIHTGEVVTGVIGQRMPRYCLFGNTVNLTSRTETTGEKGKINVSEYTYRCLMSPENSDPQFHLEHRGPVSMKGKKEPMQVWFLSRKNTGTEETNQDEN
Assay type: cell-based
Method in brief: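 Compounds tested in a recombinant guanylate cyclase reporter cell line per a published method. Potency expressed as minimum effective concentration (MEC), sometimes as mean of individual determinations.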
In the case of `Cc1nc2c(OCc3c(F)cccc3F)cccn2c1C(=O)Nc1cc(F)cc(F)c1N` [Example 143, N-(2-Amino-3,5-difluorophenyl)-8-[(2,6-difluorobenzyl)oxy]-2-methylimidazo[1,2-a]pyridine-3-carboxamide], the MEC is reported as 0.3 µM.
In the case of `Cc1nc(NC(=O)c2c(C)nc3c(OCc4c(F)cccc4F)cccn23)oc1C` [Example 144, 8-[(2,6-difluorobenzyl)oxy]-N-(4,5-dimethyl-1,3-oxazol-2-yl)-2-methylimidazo[1,2-a]pyridine-3-carboxamide], the MEC is reported as 3.0 µM.
Compound `Cc1nc2c(OCc3c(F)cccc3F)cccn2c1C(=O)Nc1nccs1` [Example 145, 8-[(2,6-difluorobenzyl)oxy]-2-methyl-N-(1,3-thiazol-2-yl) imidazo[1,2-a]pyridine-3-carboxamide] has an MEC of 3.0 µM.
`Cc1cnc(NC(=O)c2c(C)nc3c(OCc4c(F)cccc4F)cccn23)s1` [Example 146, 8-[(2,6-difluorobenzyl)oxy]-2-methyl-N-(5-methyl-1,3-thiazol-2-yl)imidazo[1,2-a]pyridine-3-carboxamide] showed an MEC of 3.0 µM.
`CCn1nc(C)c(NC(=O)c2c(C)nc3c(OCCC(C(F)(F)F)C(F)(F)F)cc(C)cn23)c1C` [Example 147, N-(1-Ethyl-3,5-dimethyl-1H-pyrazol-4-yl)-2,6-dimethyl-8-[4,4,4-trifluoro-3-(trifluoromethyl)butoxy]imidazo[1,2-a]pyridine-3-carboxamide] showed an MEC of 3.0 µM.
In the case of `Cc1cc(OCCC(C(F)(F)F)C(F)(F)F)c2nc(C)c(C(=O)Nc3c(C)nn(Cc4ccccc4F)c3C)n2c1` [Example 148], the MEC is reported as 1.0 µM.
`Cc1cc(OCCC(C(F)(F)F)C(F)(F)F)c2nc(C)c(C(=O)Nc3c(C)n[nH]c3C(F)(F)F)n2c1` [Example 149, 2,6-dimethyl-N-[3-methyl-5-(trifluoromethyl)-1H-pyrazol-4-yl]-8-[4,4,4-trifluoro-3-(trifluoromethyl)butoxy]imidazo[1,2-a]pyridine-3-carboxamide] gave an MEC of 2.0 µM.
Compound `Cc1nc2c(OCC3CCCCC3)cccn2c1C(=O)Nc1cccc(CCC(=O)O)c1` [Example 150, 3-[3-({[8-(Cyclohexylmethoxy)-2-methylimidazo[1,2-a]pyridin-3-yl]carbonyl}amino)phenyl]propanoic acid] has an MEC of 1.0 µM.
`Cc1cc(OCC2CC(F)(F)C2)c2nc(C)c(C(=O)Nc3c(C)n[nH]c3C(F)(F)F)n2c1` [Example 151, 8-[(3,3-Difluorocyclobutyl)methoxy]-2,6-dimethyl-N-[3-methyl-5-(trifluoromethyl)-1H-pyrazol-4-yl]imidazo[1,2-a]pyridine-3-carboxamide] showed an MEC of 3.0 µM.
For `Cc1cc(OCc2c(F)cccc2F)c2nc(C)c(C(=O)Nc3cccc(S(C)(=O)=O)c3)n2c1` [Example 152, 8-[(2,6-Difluorobenzyl)oxy]-2,6-dimethyl-N-[3-(methylsulphonyl)phenyl]imidazo[1,2-a]pyridine-3-carboxamide], the MEC was 1.0 µM.
`Cc1cc(OCc2c(F)cccc2F)c2nc(C)c(C(=O)Nc3cccc(NS(C)(=O)=O)c3)n2c1` [Example 153, 8-[(2,6-Difluorobenzyl)oxy]-2,6-dimethyl-N-{3-[(methylsulphonyl)amino]phenyl}imidazo[1,2-a]pyridine-3-carboxamide] gave an MEC of 3.0 µM.
`Cc1nn(S(C)(=O)=O)c(C)c1NC(=O)c1c(C)nc2c(OCc3c(F)cccc3F)cccn12` [Example 154, 8-[(2,6-Difluorobenzyl)oxy]-N-[3,5-dimethyl-1-(methylsulphonyl)-1H-pyrazol-4-yl]-2-methylimidazo[1,2-a]pyridine-3-carboxamide] gave an MEC of 1.0 µM.
